The conditions of data set [1]: in water at 25°C; cited from earlier work.
Another data set can be described thus: physchem. The conditions noted are these: 25 °C, organic solvent or mixture, thermodynamic from solid.
Data set [2] in a line: Solubility of the additive or its sodium salt in a mixed solvent of tetrahydrofuran, acetone, tert-butyl methyl ether and water (supernatant analysed by HPLC). The conditions noted are these: 25 °C, organic solvent or mixture, thermodynamic from solid.

Bounds are passed on as bounds.

The pKa is the pH at which an ionisable group is half protonated. For orientation: solubility means the dissolved amount per volume that the medium holds.

As for `CC(=O)Nc1ccc(O)cc1` [Acetaminophen], the pKa in data set [1] is given as 9.78. The solubility in the data set “physchem” (Solubility of additive) is no less than 70 mM; in “physchem” (Solubility of sodium salt of additive) it was 40 mM.
`Cc1cccc(O)c1` [m-Cresol]: the solubility in data set [2] was no less than 50 mM; in data set [2] (Solubility of additive, 25°C, tetrahydrofuran:acetone:tert-butyl methyl ether 8:10:5 by volume, water 3% by mass, stirred for 6 hours or longer) it was no less than 50 mM.

(Values after patent publication EP4782433A1, “METHOD FOR PRODUCING ARYLAMIDE DERIVATIVE” (CHUGAI SEIYAKU KABUSHIKI KAISHA, priority 2023, dated 2025).)
